The subject of series [1] is mice exposed intranasally to ovalbumin/LPS. As to the kind of experiment: OVA/LPS animal model of pulmonary type 1 inflammation. The format is in vivo, mouse. The conditions noted are these: PCS intravenous on day -1 and day 11. As for the experimental part:
Results are from one experiment (n=4 per group, p=0.0335). All data are presented as mean values+/−SEM. *p≤0.05. Statistical significance was evaluated with Mann-Whitney test.
Mice were anaesthetized by the inhalation of 4% isoflurane in oxygen for 3-5 min. 100 μg Ovalbumin (Invivogen, cat nr vac-pova) was mixed with 10 μg LPS from E. coli (Sigma-Aldrich, cat nr L4391) and administered intranasally per mouse on days 0, 11, 12 and 13. Mice were sacrificed with the lethal dose of pentobarbital on day 14.

The test system of series [2] is C57BL6/J mice exposed intranasally to house dust mite extract (HDM). In words: HDM animal model of allergic airway inflammation. In kind it is in vivo, mouse. The procedure:
Mice received water as a control or L-tyrosine (reagent grade, ≥98% Sigma-Aldrich, St. Louis, Mo.) resuspended in drinking water under sterile conditions at the concentration of 100 mg/kg/day or 500 mg/kg/day (based on the assumption of a mouse consuming 4 ml of water daily). All mice received the treatment 2 weeks prior and throughout the experiment. […] Control mice received 200 μl of saline. […]. For experiments employing antibiotic treatment, 3-week old mice were treated with a combination enrofloxacin (10 mg/kg/day) and amoxicillin with clavulanic acid (1 mg/kg/day) for one week, followed by one week of only amoxicillin with clavulanic acid (1 mg/kg/day). Then, mice were then put on L-tyrosine diet in drinking water for two weeks followed by HDM exposure as before. During this time, mice were maintained on antibiotic treatment with amoxicillin/clavulanic acid until end of experiment.
Mice were anaesthetised by the inhalation of 4% isoflurane in oxygen for 3-5 minutes. 20 μg of protein content of crude house dust mite extract (HDM) (Greer Laboratories Inc., Lenoir, N.C.) in 20 μl of sterile phosphate-buffered saline (PBS) (Gibco™) was applied intranasally on days 0, 11, 12 and 13. Mice were humanely sacrificed with the lethal dose of pentobarbital (Streuli Pharma AG, Uznach, Switzerland) on day 14.
Bronchoalveolar lavage fluid (BALF) was collected by flushing airways with 0.5 ml PBS supplemented with 0.2% bovine serum albumin (Sigma-Aldrich, St. Louis, Mo.). Total cell number was determined with Coulter Counter (IG Instrumenten-Gesellschaft AG, Basel, Switzerland) while differential cell staining performed on cytospins stained with Diff-Quik solution (Dade Behring, Siemens Healthcare Diagnostics, Deerfield, Ill.). Percentages of neutrophils, macrophages, lymphocytes and eosinophils were assessed by counting 200 cells per sample.
Concentrations of interleukin-4, -5, -13, -17 and IFN-γ in culture supernatants were analysed with mouse Ready-Set-Go!™ ELISA kits (eBioscience™, San Diego, Calif.) according to manufacturer's instructions. To measure the levels of HDM-specific IgG1 and IgE in plasma, half area 96-well plates (Corning) were coated with HDM (10 μg in PBS) overnight at 4° C., followed by the incubation of samples for 2 hours at RT, and the addition of alkaline-phophatase-conjugated goat anti-mouse IgE or IgG1 (both from SouthernBiotech, Birmingham, Ala.; diluted at 1 μg ml-1 in PBS 0.2% BSA) for 2 hours at RT. 4-nitrophenyl phosphate sodium salt hexahydrate (pNPP) (Sigma) was used as a substrate, and the colorimetric reaction was read at 405 nm on the Synergy H1 microplate reader (Biotek, Luzern, Switzerland). To measure the levels of total IgA and IgM as well as hen egg lysozyme (HEL)-specific IgA and IgM in mouse faeces, faecal pellets were homogenized in 0.8 ml cold PBS, centrifuged at 400 g for 5 minutes to remove large debris, filtered through 40 μm cell strainer and centrifuged at 8000 g for 10 minutes to pellet bacteria. The supernatant was collected and loaded for 2 hours at RT on 96-well half area plates coated a day before at 4° C. with anti-IgA (Southern Biotech; 2 μg ml-1), anti-IgM (SouthernBiotech; 2 μg ml-1) or HEL protein (Sigma-Aldrich; 10 μg/ml). This step was followed by the addition of alkalinephophatase-conjugated goat anti-mouse IgA or IgM (both at 1 μg ml-1 in PBS 0.2% BSA) for 2 hours at RT. 4-nitrophenyl phosphate sodium salt hexahydrate (pNPP) (Sigma) was used as a substrate, and the colorimetric reaction was read at 405 nm as before.
Mediastinal lymph nodes were filtered through a 40 μm cell strainer, washed with PBS supplemented with 1% fetal bovine serum and 2 mM EDTA (Invitrogen) (MACS buffer). Lungs were finely cut with scissors, digested with Collagenase IV (Gibco™) in Iscove's modified Dulbecco's medium (IMDM, Gibco™) for 50 min at 37° C. and processed as the lymph nodes.

Series [3] has as its system epithelial cells, dendritic cells, macrophages and bone marrow precursors. As to the kind of experiment: Effect of PCS on cells (deleteriousness). In kind it is cell-based.
For series [4] the following is noted: mice with normal renal function, cited from earlier work.
For a further series, the system named is CCL20. As to the kind of experiment: In vitro stimulation of lung cells enriched for airway epithelial cells, chemokine release. In kind it is cell-based, mouse. The conditions noted are these: 24 hours; for CCL20 production by lung cells stimulated with LPS: EGF 100 ng/ml, amphiregulin 500 ng/ml or gefitinib 0.16 μM, lower efficacy than PCS. As for the experimental part: Mice were euthanized by CO2 inhalation, instilled with a 1.5 ml dispase II (Sigma-Aldrich) intratracheally, followed by intratracheal injection of 0.5 ml 1% low melting point agarose (Sigma-Aldrich). Lungs were then covered with ice for 3 min, removed and placed in a 15 ml falcon tube with 2 ml of dispase II, and incubated for 45 min with gentle agitation. This was followed by mechanical disruption of the lung lobes using forceps in DMEM supplemented with DNAse I (Sigma-Aldrich, 1U/ml), filtration through 70- and 40-μM cell strainers (Falcon®, Corning) and lysis of erythrocytes using red blood cell lysing buffer (BD Biosciences). Lung cells were plated in a flat-bottom 24-well or 96-well plates (Costar) coated with fibronectin (Sigma-Aldrich, 10 μg/ml) at the density of 1 mln or 0.2 mln cells/well, respectively.
5% CO2, after which the supernatant was collected and stored at −20° C. until further use.

For series [5] the following is noted: mouse, in vivo. The procedure:
Concentrations of cystatin, clusterin, lipocalin-2 and osteopontin in serum of vehicle or PCStreated mice were determined with MILLIPLEX MAP Mouse Kidney Injury Magnetic Bead Panel 2—Toxicity Multiplex Assay (Merck) according to manufacturer's instructions.

[6] abbreviates: PCS intravenous 40 mg/kg, lymph node cells restimulated with HDM for 4 days.
The mark [7] stands for this setting: lung cells from naive mice, HDM 100 μg/ml, PCS 100 μg/ml.

Counter-ions that a name gives are not always drawn.

For the compound `Cc1ccc(OS(=O)(=O)O)cc1` [PCS, p-cresol sulfate], in series [1] (ovalbumin/LPS), the “infiltration of CD4+ T cells to the airways” value is given as “inhibited” and the “infiltration of CD8+ T cells to the airways” value is listed as “inhibited”. The “infiltration of neutrophils to the airways” value in series [1] (ovalbumin/LPS intranasal days 0, 11, 12, 13) is reported as “inhibited”. In series [2] (PCS intravenous 40 mg/kg), the “FoxP3+ Tregs in the lungs” value is on record as “no major alterations”, the “numbers of lung CD4+ T cells” value was “no major alterations” and the recruitment of neutrophils result was “reduced”. Further, in series [2] (PCS intravenous 40 mg/kg, vs saline), the “infiltration of DCs into the lungs” value is given as “decreased”. Further, in series [2] (setting [6]), the “production of IL-5 by restimulated mediastinal lymph nodes” value is given as “reduced” and the “production of IL-13 by restimulated mediastinal lymph nodes” value is “reduced”. In addition, the “eosinophilia in the BALF” value in series [2] (PCS intravenous (retro-orbital) 40 mg/kg on day -1 and day 11, vs saline, HDM days 0, 11, 12, 13) was “ameliorated”. Moreover, the “deleterious effect on epithelial cells, dendritic cells, macrophages and bone marrow precursors” value in series [3] is “not deleterious”. Also, the “time to clearance from the blood” value in series [4] (intraperitoneal or oral PCS) was no more than 4 h. Besides, the “accumulation on chronic administration” value in series [4] (twice a day for 4 weeks) is listed as “does not lead to its accumulation”. Moreover, in the series with CCL20 (setting [7]), the “HDM-induced production of CCL20” value was “completely abrogated” and the “HDM-induced secretion of other chemokines” value is “did not have an effect”. Besides, the “LPS-induced CCL20” value with CCL20 (lung cells from naive mice, LPS 10 μg/ml, PCS 100 μg/ml) was “inhibited”. The “elevation of major kidney toxicity markers” value in series [5] was “not detected”.
On to `COc1cc2ncnc(Nc3ccc(F)c(Cl)c3)c2cc1OCCCN1CCOCC1` [gefitinib, reference compound], for which the “CCL20 production by lung cells stimulated with LPS” value in the series on CCL20 (LPS 10 μg/ml) is “selective reduction”.
In the case of “EGF: high affinity EGFR ligand, Epidermal Growth Factor”, the “CCL20 production by lung cells stimulated with LPS” value with CCL20 (LPS 10 μg/ml) is “selective reduction”.

Values taken from patent publication US20230045151A1, “COMPOSITIONS AND METHODS” (MONASH UNIVERSITY, priority 2020, published 2023).
